“And” between values parts separate entries of the source, which are not always exact repeats. Identical values can stand only once.
Key:
plasma protein = experiment: Plasma protein binding; format: in vitro ADME; conditions: in animals and humans
[1] = system: Ba/F3 cells expressing the non-mutated Bcr-Abl1 kinase; experiment: WST-1 cell viability, Ba/F3 cells expressing Bcr-Abl1; format: cell-based; conditions: Mus musculus, BaF3, 48 hours, serum free
Experimental: (§1) Ba/F3 cells either stably overexpressing Bcr-Abl1 (A) or the mutant Bcr-Abl1 T315I (B) were cultured overnight in serum free RPMI-1640 media supplemented with 2 mM glutamine, 100 U/mL penicillin and 100 μg/mL streptomycin (Sigma-Aldrich). The following day, cells were plated in a 96-well plate with each well containing 2000 cells in a volume of 100 μl serum free RMPI media. […] The 96 well plates were incubated for 48 hours, and cell viability was measured in a WST-1 assay (Roche). Briefly, 5 μl WST-1 solution was added to each well and the 96-well plate was incubated for another 2 hours. The readout was performed in an ELSA reader at 480 nm. (measure)/620 nm (reference). Subsequent data analysis was performed with Microsoft Excel 2003 and GraphPad Prism 4.0.

c-Kit [2] = target: T1, c-Kit (Homo sapiens, UniProt P10721); experiment: biochemical
T1 sequence (P10721 26-976): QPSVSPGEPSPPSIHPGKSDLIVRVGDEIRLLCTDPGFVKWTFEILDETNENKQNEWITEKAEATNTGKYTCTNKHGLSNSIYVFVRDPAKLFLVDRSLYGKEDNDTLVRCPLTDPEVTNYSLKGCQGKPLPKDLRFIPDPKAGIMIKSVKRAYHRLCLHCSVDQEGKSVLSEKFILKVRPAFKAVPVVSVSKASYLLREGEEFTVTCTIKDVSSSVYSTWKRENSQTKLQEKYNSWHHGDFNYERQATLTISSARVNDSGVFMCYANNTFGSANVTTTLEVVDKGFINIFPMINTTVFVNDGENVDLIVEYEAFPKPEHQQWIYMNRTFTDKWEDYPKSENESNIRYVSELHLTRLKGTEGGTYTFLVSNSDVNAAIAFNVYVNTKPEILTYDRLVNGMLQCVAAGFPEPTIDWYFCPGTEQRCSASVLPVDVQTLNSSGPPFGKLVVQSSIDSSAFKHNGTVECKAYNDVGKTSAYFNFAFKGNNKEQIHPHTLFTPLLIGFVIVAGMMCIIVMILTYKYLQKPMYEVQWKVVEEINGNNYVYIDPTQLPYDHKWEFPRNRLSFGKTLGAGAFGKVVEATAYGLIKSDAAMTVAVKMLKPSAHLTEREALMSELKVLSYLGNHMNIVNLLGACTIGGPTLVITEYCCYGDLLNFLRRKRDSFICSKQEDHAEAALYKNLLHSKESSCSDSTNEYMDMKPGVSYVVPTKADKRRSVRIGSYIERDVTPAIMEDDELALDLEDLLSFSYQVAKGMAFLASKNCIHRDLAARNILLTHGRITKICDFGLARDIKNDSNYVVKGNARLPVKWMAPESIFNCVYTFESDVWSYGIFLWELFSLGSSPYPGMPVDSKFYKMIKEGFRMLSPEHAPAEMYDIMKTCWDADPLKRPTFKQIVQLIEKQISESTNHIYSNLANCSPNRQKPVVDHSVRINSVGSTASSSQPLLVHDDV
From the text: (§2) Detailed assay methodologies can be found in the relevant references cited herein, or in the KinaseProfiler Service Assay Protocols (v54, 2011) available from EMD Millipore (www.emdmillipore.com), or from the KinomeScan website (www.kinomescan.com), as appropriate. (For a more detailed description of KINOMEscan's assay technology, see: Fabian et al. A small molecule-kinase interaction map for clinical kinase inhibitors. Nat. Biotechnol. 23, 329-336 (2005)). A summary is provided below.
(§3) KinomeScan™ assays (DiscoveRx Corporation, San Diego, Calif., USA) are active-site-directed competition binding assays. […] The amount of kinase captured in test versus control samples is determined by using a qPCR method that detects the associated DNA label on each kinase molecule. Dissociation constants (Kd) for test compound-kinase interactions are calculated by measuring the amount of kinase captured on the solid support as a function of the test compound concentration.

Abl [3] = target: T2, Abl (Homo sapiens, UniProt P00519); experiment: biochemical
From the text: as §2, §3

c-Kit (V654A) = target: T3, c-Kit (V654A) (Homo sapiens, UniProt P10721, V654A); experiment: KinaseProfiler kinase activity assay; format: biochemical
T3 construct: purchased EMD Millipore Corp. (KinaseProfiler service)
T3 sequence (P10721 26-976 V654A): as the sequence (P10721 26-976) above, with V629A counted along it
Experimental: (§6) KinaseProfiler™ assays (EMD Millipore Corp. Billerica, Mass., USA) are radioligand binding assays with purified or partially-purified human kinases. Most of the KinaseProfiler™ assays are conducted in 20 mM MOPS, 1 mM EDTA, 0.01% Brij-35, 5% Glycerol, 0.1% b-mercaptoethanol, 1 mg/mL BSA. The assay involves the transfer of ^32P from γ-^32P-ATP to the target peptide, followed by washing and trapping of the labeled peptide on a filter. The concentration of γ-^32P-ATP used was at the established Km for ATP.

c-Kit (D816V) = c-Kit (D816V) (Homo sapiens, UniProt P10721, D816V); experiment: KinaseProfiler kinase activity assay; format: biochemical; design: purchased EMD Millipore Corp. (KinaseProfiler service)
Sequence of c-Kit (D816V) (P10721 26-976 D816V): as the sequence (P10721 26-976) above, with D791V counted along it
Experimental: as §6

Ret = Ret (Homo sapiens, UniProt P07949); experiment: KinaseProfiler kinase activity assay; format: biochemical; design: purchased EMD Millipore Corp. (KinaseProfiler service); conditions: ATP at Km
Sequence of Ret (P07949 29-1114): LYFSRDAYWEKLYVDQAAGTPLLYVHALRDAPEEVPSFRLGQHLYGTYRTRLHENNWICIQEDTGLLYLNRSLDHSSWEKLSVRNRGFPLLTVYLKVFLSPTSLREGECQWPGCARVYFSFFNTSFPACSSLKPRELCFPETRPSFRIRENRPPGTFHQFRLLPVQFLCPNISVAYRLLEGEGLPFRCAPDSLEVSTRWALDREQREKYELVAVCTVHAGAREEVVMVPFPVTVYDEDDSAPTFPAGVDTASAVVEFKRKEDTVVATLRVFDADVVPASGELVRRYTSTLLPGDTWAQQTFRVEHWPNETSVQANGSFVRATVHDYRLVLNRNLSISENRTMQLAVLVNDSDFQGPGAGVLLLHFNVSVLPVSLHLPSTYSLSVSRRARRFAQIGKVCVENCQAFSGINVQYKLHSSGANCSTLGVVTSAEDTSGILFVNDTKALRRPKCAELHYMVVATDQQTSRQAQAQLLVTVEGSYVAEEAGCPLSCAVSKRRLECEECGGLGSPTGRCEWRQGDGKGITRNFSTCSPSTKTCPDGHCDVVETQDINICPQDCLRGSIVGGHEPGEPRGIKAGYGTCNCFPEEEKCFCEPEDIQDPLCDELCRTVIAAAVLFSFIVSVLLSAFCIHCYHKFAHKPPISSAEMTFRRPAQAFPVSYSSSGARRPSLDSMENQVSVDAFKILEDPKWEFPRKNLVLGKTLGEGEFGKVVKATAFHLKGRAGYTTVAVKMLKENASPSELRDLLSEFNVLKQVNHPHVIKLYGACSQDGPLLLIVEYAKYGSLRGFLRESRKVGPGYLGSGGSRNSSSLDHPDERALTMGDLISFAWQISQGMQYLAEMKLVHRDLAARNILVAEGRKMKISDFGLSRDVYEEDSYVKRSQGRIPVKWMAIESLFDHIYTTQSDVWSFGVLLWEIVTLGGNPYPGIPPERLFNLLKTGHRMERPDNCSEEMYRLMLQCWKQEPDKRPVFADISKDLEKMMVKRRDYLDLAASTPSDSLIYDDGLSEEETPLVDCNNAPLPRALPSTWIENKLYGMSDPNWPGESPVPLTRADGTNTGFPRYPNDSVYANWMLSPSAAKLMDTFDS
From the text: (§4) A summary is provided below.

c-Kit (V560G) = target: T4, c-Kit (V560G) (Homo sapiens, UniProt P10721, V560G); experiment: KinaseProfiler kinase activity assay; format: biochemical
T4 construct: purchased EMD Millipore Corp. (KinaseProfiler service)
T4 sequence (P10721 26-976 V560G): as the sequence (P10721 26-976) above, with V535G counted along it
Experimental: as §6

Abl (T315I) = Abl (T315I) (Homo sapiens, UniProt P00519, T315I); experiment: KinaseProfiler kinase activity assay; format: biochemical; design: purchased EMD Millipore Corp. (KinaseProfiler service); conditions: ATP at Km
From the text: as §2
(§5) KinaseProfiler™ assays (EMD Millipore Corp. Billerica, Mass., USA) are […] with purified or partially-purified human kinases. Most of the KinaseProfiler™ assays are conducted in 20 mM MOPS, 1 mM EDTA, 0.01% Brij-35, 5% Glycerol, 0.1% b-mercaptoethanol, 1 mg/mL BSA. The assay involves the transfer of ^32P from γ-^32P-ATP to the target peptide, followed by washing and trapping of the labeled peptide on a filter. The concentration of γ-^32P-ATP used was at the established Km for ATP.

Abl(Q252H) = Abl(Q252H) (Homo sapiens, UniProt P00519, Q252H); experiment: KinaseProfiler kinase activity assay; format: biochemical; design: purchased EMD Millipore Corp. (KinaseProfiler service); conditions: ATP at Km
From the text: as §2, §5

Abl(Y253F) = Abl(Y253F) (Homo sapiens, UniProt P00519, Y253F); experiment: KinaseProfiler kinase activity assay; format: biochemical; design: purchased EMD Millipore Corp. (KinaseProfiler service); conditions: ATP at Km
From the text: as §2, §5

Tyro3 = Tyro3 (Homo sapiens, UniProt Q06418); experiment: KinaseProfiler kinase activity assay; format: biochemical; design: purchased EMD Millipore Corp. (KinaseProfiler service); conditions: ATP at Km
Sequence of Tyro3 (Q06418 41-890): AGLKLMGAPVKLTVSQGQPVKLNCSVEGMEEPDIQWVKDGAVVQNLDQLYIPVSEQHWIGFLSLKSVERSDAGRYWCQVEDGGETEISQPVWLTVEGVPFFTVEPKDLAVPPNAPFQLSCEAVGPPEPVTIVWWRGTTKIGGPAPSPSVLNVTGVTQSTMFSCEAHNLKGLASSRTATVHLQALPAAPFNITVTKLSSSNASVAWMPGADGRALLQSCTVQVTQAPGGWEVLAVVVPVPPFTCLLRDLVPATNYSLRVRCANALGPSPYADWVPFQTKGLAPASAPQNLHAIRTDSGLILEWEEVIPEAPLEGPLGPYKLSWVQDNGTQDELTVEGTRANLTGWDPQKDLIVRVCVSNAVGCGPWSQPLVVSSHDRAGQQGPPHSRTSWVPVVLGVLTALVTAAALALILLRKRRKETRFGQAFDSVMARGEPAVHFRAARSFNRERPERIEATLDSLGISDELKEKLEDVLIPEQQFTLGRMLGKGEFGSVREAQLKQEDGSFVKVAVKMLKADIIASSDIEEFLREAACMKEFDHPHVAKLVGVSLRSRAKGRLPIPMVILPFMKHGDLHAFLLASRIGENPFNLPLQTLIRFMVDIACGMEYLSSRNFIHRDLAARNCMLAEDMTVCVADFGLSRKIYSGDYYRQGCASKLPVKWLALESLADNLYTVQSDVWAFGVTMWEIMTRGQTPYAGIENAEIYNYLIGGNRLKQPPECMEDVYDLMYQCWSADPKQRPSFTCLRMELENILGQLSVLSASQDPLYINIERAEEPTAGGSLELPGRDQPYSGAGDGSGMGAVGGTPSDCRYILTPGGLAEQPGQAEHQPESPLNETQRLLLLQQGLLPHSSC
From the text: as §2, §5

Abl(H396P) = Abl(H396P) (Homo sapiens, UniProt P00519, H396P); experiment: KinaseProfiler kinase activity assay; format: biochemical; design: purchased EMD Millipore Corp. (KinaseProfiler service); conditions: ATP at Km
From the text: as §2, §5

Abl(M351T) = Abl(M351T) (Homo sapiens, UniProt P00519, M351T); experiment: KinaseProfiler kinase activity assay; format: biochemical; design: purchased EMD Millipore Corp. (KinaseProfiler service); conditions: ATP at Km
From the text: as §2, §5

c-Kit (D816H) = c-Kit (D816H) (Homo sapiens, UniProt P10721, D816H); experiment: KinaseProfiler kinase activity assay; format: biochemical; design: purchased EMD Millipore Corp. (KinaseProfiler service)
Sequence of c-Kit (D816H) (P10721 26-976 D816H): as the sequence (P10721 26-976) above, with D791H counted along it
Experimental: as §4, §5

Abl [4] = target: T2, Abl; experiment: KinaseProfiler kinase activity assay; format: biochemical; conditions: Abl wild-type; ATP at Km
From the text: as §2, §5

BaF3/wt-BCR-ABL cells = experiment: Subcutaneous BaF3/wt-BCR-ABL tumor model; format: in vivo; conditions: 25 (or 50) mg/kg twice per day via gavage; NSG mice
Experimental: 6- to 8-week-old male NSG mice were implanted subcutaneously with 1×10^7 BaF3/wt-BCR-ABL or 1×10^7 BaF3/T315I cells per mouse into the right flank. Five days after implantation mice were randomized into groups with a mean volume of approximately 100 mm^3. […] Tumor volume was measured every 2-3 days. Animals were sacrificed at day 12 and tumors embedded for histology.

c-Kit [5] = target: T1, c-Kit; experiment: KinaseProfiler kinase activity assay; format: biochemical; design: purchased EMD Millipore Corp. (KinaseProfiler service)
Experimental: as §6

[6] = system: Ba/F3 cells expressing T315I mutated Bcr-Abl1 fusion protein; experiment: WST-1 cell viability, Ba/F3 cells expressing Bcr-Abl1 T315I; format: cell-based; conditions: Mus musculus, BaF3, 48 hours, serum free, read-out: IB50 cell viability
Experimental: as §1

With `Nc1nc(Nc2ccc3c(c2)CC[C@@H](N2CCCC2)CC3)nn1-c1cc2c(nn1)-c1ccccc1CCC2` [Compound A, 1-(6,7-dihydro-5H-benzo[6,7]cyclohepta[1,2-c]pyridazine-3-yl)-N^3-(7-(S)-(pyrrolidin-1-yl)-6,7,8,9-tetrahydro-5H-benzo[7]annulene-2-yl)-1H-1,2,4-triazole-3,5-diamine] as the molecule, how does the “binding to plasma protein” value (plasma protein) read?
The value was > 99%.

What about the IC50 [1] of the same molecule?
Its IC50 is 0.796 µM.

What about the Kd (c-Kit [2]) of the same molecule?
The Kd was 0.104 µM.

And the Kd (Abl [3])?
The Kd was 0.052 µM.

What about the IC50 (c-Kit (V654A)) of the same molecule?
The IC50 was 0.286 µM.

And the IC50 (c-Kit (D816V))?
Its IC50 is 0.177 µM.

What about the IC50 (Ret) of the same molecule?
The IC50 was 38 nM and 22 nM.

And the IC50 (c-Kit (V560G))?
Its IC50 is 0.045 µM.

And the IC50 (Abl (T315I))?
The IC50 was 4 nM.

What about the IC50 (Abl(Q252H)) of the same molecule?
Its IC50 is 16 nM.

What about the IC50 (Abl(Y253F)) of the same molecule?
Its IC50 is 26 nM.

What about the IC50 (Tyro3) of the same molecule?
Its IC50 is 413 nM.

What about the IC50 (Abl(H396P)) of the same molecule?
Its IC50 is 22 nM.

And the IC50 (Abl(M351T))?
The IC50 was 32 nM.

And the IC50 (c-Kit (D816H))?
The IC50 was 0.008 µM.

And the IC50 (Abl [4])?
Its IC50 is 51 nM.

And the “inhibition of wild type CML in vivo (tumor volume)” value (BaF3/wt-BCR-ABL cells)?
The value was “potentially inhibits”.

And the IC50 (c-Kit [5])?
Its IC50 is 1.28 µM.

What about the IC50 [6] of the same molecule?
The IC50 was 0.57 µM.

— patent publication US9801880B2, “Use of kinase inhibitors” (BerGenBio AS, priority 2013, dated 2017)
